Experimental data from PubChem BioAssay AID1259407 (Chemical Carcinogenesis Research Information System (CCRIS), 2018).
Activity calls are given as the source filed them. No rule for the calls is given here.

Tested on: CCRIS mutagenicity, Ames/micronucleus/aberration tests
Assay: CCRIS mutagenicity studies
Source text: The CCRIS database contains chemical records with carcinogenicity, mutagenicity, tumor promotion, and tumor inhibition test results. It was developed by the National Cancer Institute (NCI). Data are derived from studies cited in primary journals, current awareness tools, NCI reports, and other sources. Test results have been reviewed by experts in carcinogenesis and mutagenesis.
CCRIS provides historical information from the years 1985 - 2011. It is no longer updated.
This is an archive assay for CCRIS mutagenicity studies.

[1] = Test System: AMES SALMONELLA TYPHIMURIUM, Strain/Indicator: TA98, Metabolic Activation: NONE, Method: PREINCUBATION
[2] = Test System: AMES SALMONELLA TYPHIMURIUM, Strain/Indicator: TA98, Metabolic Activation: RAT, LIVER, S-9, AROCLOR 1254 (10%), Method: PREINCUBATION
[3] = Test System: AMES SALMONELLA TYPHIMURIUM, Strain/Indicator: TA100, Metabolic Activation: NONE, Method: PREINCUBATION
[4] = Test System: AMES SALMONELLA TYPHIMURIUM, Strain/Indicator: TA100, Metabolic Activation: RAT, LIVER, S-9, AROCLOR 1254 (10%), Method: PREINCUBATION
[5] = Test System: AMES SALMONELLA TYPHIMURIUM, Strain/Indicator: TA1535, Metabolic Activation: NONE, Method: PREINCUBATION
[6] = Test System: AMES SALMONELLA TYPHIMURIUM, Strain/Indicator: TA1535, Metabolic Activation: RAT, LIVER, S-9, AROCLOR 1254 (10%), Method: PREINCUBATION
[7] = Test System: MOUSE LYMPHOMA, Strain/Indicator: L5178Y (TK+/TK-), Metabolic Activation: RAT, LIVER, S-9, AROCLOR 1254, Method: SUSPENSION/PLATE

Measured: mutagenic call

C[C@H](CCC(=O)O)[C@H]1CC[C@H]2[C@@H]3CC[C@@H]4C[C@H](O)CC[C@]4(C)[C@H]3CC[C@]12C
inactive: Test System: AMES SALMONELLA TYPHIMURIUM, Strain/Indicator: TA97, Metabolic Activation: HAMSTER, LIVER, S-9, AROCLOR 1254 (10 OR 30%), Method: PREINCUBATION inactive; negative | Test System: AMES SALMONELLA TYPHIMURIUM, Strain/Indicator: TA97, Metabolic Activation: NONE, Method: PREINCUBATION inactive; negative | Test System: AMES SALMONELLA TYPHIMURIUM, Strain/Indicator: TA97, Metabolic Activation: RAT, LIVER, S-9, AROCLOR 1254 (10%), Method: PREINCUBATION inactive; negative | Test System: AMES SALMONELLA TYPHIMURIUM, Strain/Indicator: TA97, Metabolic Activation: RAT, LIVER, S-9, AROCLOR 1254 (30%), Method: PREINCUBATION inactive; negative | Test System: AMES SALMONELLA TYPHIMURIUM, Strain/Indicator: TA98, Metabolic Activation: HAMSTER, LIVER, S-9, AROCLOR 1254 (10 OR 30%), Method: PREINCUBATION inactive; negative | Test System: AMES SALMONELLA TYPHIMURIUM, Strain/Indicator: TA98, Metabolic Activation: NONE, Method: FLUCTUATION TEST inactive; negative | [1] inactive; negative | [2] inactive; negative | Test System: AMES SALMONELLA TYPHIMURIUM, Strain/Indicator: TA98, Metabolic Activation: RAT, LIVER, S-9, AROCLOR 1254 (30%), Method: PREINCUBATION inactive; negative | Test System: AMES SALMONELLA TYPHIMURIUM, Strain/Indicator: TA98, Method: PREINCUBATION inactive; negative | Test System: AMES SALMONELLA TYPHIMURIUM, Strain/Indicator: TA100, Metabolic Activation: HAMSTER, LIVER, S-9, AROCLOR 1254 (10 OR 30%), Method: PREINCUBATION inactive; negative | Test System: AMES SALMONELLA TYPHIMURIUM, Strain/Indicator: TA100, Metabolic Activation: NONE, Method: FLUCTUATION TEST inactive; negative | [3] inactive; negative | Test System: AMES SALMONELLA TYPHIMURIUM, Strain/Indicator: TA100, Metabolic Activation: NONE, Method: STANDARD PLATE inactive; negative | [4] inactive; negative | Test System: AMES SALMONELLA TYPHIMURIUM, Strain/Indicator: TA100, Metabolic Activation: RAT, LIVER, S-9, AROCLOR 1254 (30%), Method: PREINCUBATION inactive; negative | Test System: AMES SALMONELLA TYPHIMURIUM, Strain/Indicator: TA100, Metabolic Activation: RAT, LIVER, S-9, AROCLOR 1254, Method: STANDARD PLATE inactive; negative | Test System: AMES SALMONELLA TYPHIMURIUM, Strain/Indicator: TA1535, Metabolic Activation: HAMSTER, LIVER, S-9, AROCLOR 1254 (10 OR 30%), Method: PREINCUBATION inactive; negative | [5] inactive; negative | [6] inactive; negative | Test System: AMES SALMONELLA TYPHIMURIUM, Strain/Indicator: TA1535, Metabolic Activation: RAT, LIVER, S-9, AROCLOR 1254 (30%), Method: PREINCUBATION inactive; negative | Test System: E. COLI, Strain/Indicator: WP2 UVRA, Metabolic Activation: HAMSTER, LIVER, S-9, AROCLOR 1254, Method: STANDARD PLATE inactive; negative | Test System: E. COLI, Strain/Indicator: WP2 UVRA, Metabolic Activation: HAMSTER, LIVER, S-9, Method: STANDARD PLATE inactive; negative | Test System: E. COLI, Strain/Indicator: WP2 UVRA, Metabolic Activation: MOUSE, LIVER, S-9, AROCLOR 1254, Method: STANDARD PLATE inactive; negative | Test System: E. COLI, Strain/Indicator: WP2 UVRA, Metabolic Activation: MOUSE, LIVER, S-9, Method: STANDARD PLATE inactive; negative | Test System: E. COLI, Strain/Indicator: WP2 UVRA, Metabolic Activation: NONE, Method: STANDARD PLATE inactive; negative | Test System: E. COLI, Strain/Indicator: WP2 UVRA, Metabolic Activation: RAT, LIVER, S-9, AROCLOR 1254, Method: STANDARD PLATE inactive; negative | Test System: E. COLI, Strain/Indicator: WP2 UVRA, Metabolic Activation: RAT, LIVER, S-9, Method: STANDARD PLATE inactive; negative | [7] inactive; negative | Test System: MOUSE LYMPHOMA, Strain/Indicator: L5178Y (TK+/TK-), Metabolic Activation: RAT, LIVER, S-9, Method: SUSPENSION/PLATE inactive; negative

C=CC[Si](C)(C)C
inactive: Test System: AMES SALMONELLA TYPHIMURIUM, Strain/Indicator: TA98, Metabolic Activation: HAMSTER, LIVER, S-9, AROCLOR 1254 (10%), Method: PREINCUBATION inactive; negative | [1] inactive; negative | [2] inactive; negative | Test System: AMES SALMONELLA TYPHIMURIUM, Strain/Indicator: TA100, Metabolic Activation: HAMSTER, LIVER, S-9, AROCLOR 1254 (10%), Method: PREINCUBATION inactive; negative | [3] inactive; negative | [4] inactive; negative | Test System: AMES SALMONELLA TYPHIMURIUM, Strain/Indicator: TA1535, Metabolic Activation: HAMSTER, LIVER, S-9, AROCLOR 1254 (10%), Method: PREINCUBATION inactive; negative | [5] inactive; negative | [6] inactive; negative | Test System: AMES SALMONELLA TYPHIMURIUM, Strain/Indicator: TA1537, Metabolic Activation: HAMSTER, LIVER, S-9, AROCLOR 1254 (10%), Method: PREINCUBATION inactive; negative | Test System: AMES SALMONELLA TYPHIMURIUM, Strain/Indicator: TA1537, Metabolic Activation: NONE, Method: PREINCUBATION inactive; negative | Test System: AMES SALMONELLA TYPHIMURIUM, Strain/Indicator: TA1537, Metabolic Activation: RAT, LIVER, S-9, AROCLOR 1254 (10%), Method: PREINCUBATION inactive; negative | Test System: AMES SALMONELLA TYPHIMURIUM, Strain/Indicator: TA1538, Metabolic Activation: HAMSTER, LIVER, S-9, AROCLOR 1254 (10%), Method: PREINCUBATION inactive; negative | Test System: AMES SALMONELLA TYPHIMURIUM, Strain/Indicator: TA1538, Metabolic Activation: NONE, Method: PREINCUBATION inactive; negative | Test System: AMES SALMONELLA TYPHIMURIUM, Strain/Indicator: TA1538, Metabolic Activation: RAT, LIVER, S-9, AROCLOR 1254 (10%), Method: PREINCUBATION inactive; negative | Test System: MOUSE LYMPHOMA, Strain/Indicator: L5178Y (TK+/TK-), Metabolic Activation: NONE, Method: SUSPENSION/PLATE inactive; negative. reevaluation of results: negative | [7] inactive; negative. reevaluation of results: negative
